According to PubChem BioAssay (NCI):
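Five compound concentrations were applied to cells in 96-well plates for 48 hours; endpoints were derived by simple linear interpolation of the resulting dose-response curve. Definition used: TGI = concentration required for complete inhibition of growth.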

Key:
Test in all cases: inhibition of tumour cell growth, NCI panel, 48 h
MDA-MB-231 breast = system: MDA-MB-231 breast
M14 melanoma = system: M14 melanoma
NCI-H226 lung = system: NCI-H226 lung
RXF 393 renal = system: RXF 393 renal
CCRF-CEM leukemia = system: CCRF-CEM leukemia
EKVX NSCLC = system: EKVX NSCLC
SNB-75 CNS = system: SNB-75 CNS
T-47D breast = system: T-47D breast
KM12 colon = system: KM12 colon
COLO 205 colon = system: COLO 205 colon
MALME-3M melanoma = system: MALME-3M melanoma
HCT-116 colon = system: HCT-116 colon
IGROV1 ovarian = system: IGROV1 ovarian
K-562 leukemia = system: K-562 leukemia
RPMI-8226 leukemia = system: RPMI-8226 leukemia

What does the source list for `C=CCC1(O)C(=O)OC2C(O)COC21O` (stereo not drawn)?
TGI (MDA-MB-231 breast): > 100 µM; TGI (M14 melanoma): > 100 µM; TGI (NCI-H226 lung): > 100 µM; TGI (RXF 393 renal): > 100 µM; TGI (CCRF-CEM leukemia): > 100 µM; TGI (EKVX NSCLC): > 100 µM; TGI (SNB-75 CNS): > 100 µM; TGI (T-47D breast): > 100 µM; TGI (KM12 colon): > 100 µM; TGI (COLO 205 colon): > 100 µM; TGI (MALME-3M melanoma): > 100 µM; TGI (HCT-116 colon): > 100 µM; TGI (IGROV1 ovarian): > 100 µM; TGI (K-562 leukemia): > 100 µM

With `c1ccc(CNCCCNCCCCNCCCNCc2ccccc2)cc1` as the molecule, how does the TGI (MDA-MB-231 breast) read?
The TGI was 22.1 µM.

What about the TGI (M14 melanoma) of the same molecule?
Its TGI is 16.1 µM.

What about the TGI (NCI-H226 lung) of the same molecule?
The TGI was 17.2 µM.

And the TGI (RXF 393 renal)?
The TGI was 25.7 µM.

What about the TGI (CCRF-CEM leukemia) of the same molecule?
The TGI was greater than 21.5 µM.

And the TGI (RPMI-8226 leukemia)?
Its TGI is 13.7 µM.

And the TGI (EKVX NSCLC)?
The TGI was 23.1 µM.

What about the TGI (SNB-75 CNS) of the same molecule?
Its TGI is 21.7 µM.

What about the TGI (T-47D breast) of the same molecule?
The TGI was 39.8 µM.

And the TGI (KM12 colon)?
The TGI was 21 µM.

What about the TGI (MALME-3M melanoma) of the same molecule?
Its TGI is 5.01 µM.

What about the TGI (HCT-116 colon) of the same molecule?
Its TGI is 14.4 µM.

And the TGI (IGROV1 ovarian)?
Its TGI is 5.58 µM.

For `CC1=C(S(=O)c2ccc(C)cc2)CCC2(CCCCO2)O1` (stereo not drawn), which TGI (MDA-MB-231 breast) is on record?
The TGI was greater than 100 µM.

And the TGI (NCI-H226 lung)?
The TGI was greater than 100 µM.

And the TGI (RXF 393 renal)?
The TGI was greater than 100 µM.

What about the TGI (RPMI-8226 leukemia) of the same molecule?
The TGI was greater than 100 µM.

What about the TGI (EKVX NSCLC) of the same molecule?
Its TGI is greater than 100 µM.

What about the TGI (SNB-75 CNS) of the same molecule?
Its TGI is greater than 100 µM.

And the TGI (T-47D breast)?
The TGI was greater than 100 µM.

What about the TGI (KM12 colon) of the same molecule?
Its TGI is greater than 100 µM.

What about the TGI (COLO 205 colon) of the same molecule?
Its TGI is greater than 100 µM.

And the TGI (MALME-3M melanoma)?
Its TGI is greater than 100 µM.

And the TGI (HCT-116 colon)?
The TGI was greater than 100 µM.

What about the TGI (IGROV1 ovarian) of the same molecule?
The TGI was greater than 100 µM.

What about the TGI (K-562 leukemia) of the same molecule?
Its TGI is greater than 100 µM.

Which results are given for `O=C1C=Cc2c1csc2Br`?
TGI (MDA-MB-231 breast): > 100 µM; TGI (M14 melanoma): 47.2 µM; TGI (RXF 393 renal): > 100 µM; TGI (CCRF-CEM leukemia): 45.8 µM; TGI (EKVX NSCLC): > 100 µM; TGI (SNB-75 CNS): > 100 µM; TGI (T-47D breast): > 100 µM; TGI (KM12 colon): > 100 µM; TGI (COLO 205 colon): > 100 µM; TGI (MALME-3M melanoma): > 100 µM; TGI (HCT-116 colon): > 100 µM; TGI (IGROV1 ovarian): > 100 µM; TGI (K-562 leukemia): 97.7 µM

Which TGI (MDA-MB-231 breast) does the source give for `COC(=O)C(=O)c1cc2ccccc2n1S(=O)(=O)c1ccccc1` here?
The TGI was greater than 100 µM.

And the TGI (M14 melanoma)?
Its TGI is greater than 100 µM.

And the TGI (RXF 393 renal)?
Its TGI is greater than 100 µM.

What about the TGI (CCRF-CEM leukemia) of the same molecule?
The TGI was greater than 100 µM.

What about the TGI (EKVX NSCLC) of the same molecule?
Its TGI is greater than 100 µM.

And the TGI (SNB-75 CNS)?
The TGI was greater than 100 µM.

And the TGI (T-47D breast)?
Its TGI is greater than 100 µM.

And the TGI (KM12 colon)?
The TGI was greater than 100 µM.

And the TGI (COLO 205 colon)?
The TGI was greater than 100 µM.

And the TGI (MALME-3M melanoma)?
Its TGI is greater than 100 µM.

What about the TGI (HCT-116 colon) of the same molecule?
The TGI was greater than 100 µM.

And the TGI (IGROV1 ovarian)?
Its TGI is greater than 100 µM.

And the TGI (K-562 leukemia)?
The TGI was greater than 100 µM.

How did the TGI (MDA-MB-231 breast) turn out when `CC1(C)CC(=O)C(CC2C(=O)c3ccccc3C2=O)C(=O)C1C(=O)C(=O)Nc1cccc2ccc(O)cc12` (stereo not drawn) was run?
The TGI was greater than 100 µM.

And the TGI (M14 melanoma)?
The TGI was greater than 100 µM.

What about the TGI (NCI-H226 lung) of the same molecule?
The TGI was greater than 100 µM.

What about the TGI (CCRF-CEM leukemia) of the same molecule?
The TGI was greater than 100 µM.

And the TGI (RPMI-8226 leukemia)?
Its TGI is greater than 100 µM.

What about the TGI (EKVX NSCLC) of the same molecule?
Its TGI is greater than 100 µM.

What about the TGI (SNB-75 CNS) of the same molecule?
The TGI was greater than 100 µM.

And the TGI (T-47D breast)?
Its TGI is greater than 100 µM.

And the TGI (KM12 colon)?
Its TGI is greater than 100 µM.

And the TGI (COLO 205 colon)?
Its TGI is greater than 100 µM.

What about the TGI (MALME-3M melanoma) of the same molecule?
The TGI was greater than 100 µM.

What about the TGI (HCT-116 colon) of the same molecule?
Its TGI is greater than 100 µM.

And the TGI (IGROV1 ovarian)?
Its TGI is greater than 100 µM.

And the TGI (K-562 leukemia)?
The TGI was greater than 100 µM.

With `CC(=O)N1N=C(c2ccc3ccccc3c2O)CC1c1ccc(Cl)cc1Cl` (stereo not drawn) as the molecule, how does the TGI (MDA-MB-231 breast) read?
The TGI was greater than 100 µM.

And the TGI (M14 melanoma)?
The TGI was greater than 100 µM.

What about the TGI (NCI-H226 lung) of the same molecule?
The TGI was greater than 100 µM.

And the TGI (RXF 393 renal)?
The TGI was greater than 100 µM.

And the TGI (CCRF-CEM leukemia)?
The TGI was greater than 100 µM.

And the TGI (RPMI-8226 leukemia)?
The TGI was greater than 100 µM.

And the TGI (SNB-75 CNS)?
The TGI was greater than 100 µM.

What about the TGI (T-47D breast) of the same molecule?
The TGI was greater than 100 µM.

And the TGI (KM12 colon)?
The TGI was greater than 100 µM.

And the TGI (COLO 205 colon)?
Its TGI is greater than 100 µM.

What about the TGI (MALME-3M melanoma) of the same molecule?
Its TGI is greater than 100 µM.

What about the TGI (HCT-116 colon) of the same molecule?
The TGI was greater than 100 µM.

What about the TGI (IGROV1 ovarian) of the same molecule?
The TGI was greater than 100 µM.

What about the TGI (K-562 leukemia) of the same molecule?
The TGI was greater than 100 µM.

Which results are given for `O=S(=O)(c1ccccc1)[C@@H]1[C@H]2C=C[C@](CS)(O2)[C@H]1S(=O)(=O)c1ccccc1`?
TGI (MDA-MB-231 breast): > 100 µM; TGI (M14 melanoma): > 100 µM; TGI (NCI-H226 lung): > 100 µM; TGI (RXF 393 renal): > 100 µM; TGI (CCRF-CEM leukemia): 8.33 µM; TGI (EKVX NSCLC): > 100 µM; TGI (SNB-75 CNS): > 100 µM; TGI (T-47D breast): > 100 µM; TGI (KM12 colon): > 100 µM; TGI (COLO 205 colon): > 100 µM; TGI (MALME-3M melanoma): > 100 µM; TGI (HCT-116 colon): 26 µM; TGI (IGROV1 ovarian): > 100 µM; TGI (K-562 leukemia): 36.9 µM
